Laboratory results taken from patent US8367835B2, “Cyclic amine-1-carboxylic acid ester derivative and pharmaceutical composition containing the same” (Dainippon Sumitomo Pharma Co., Ltd., priority 2008, dated 2013).

Tests used:
[1] = test system: mechanical hyperalgesia in a neuropathic pain model (rat Chung model); test: Analgesic effect: von Frey filament test using rat Chung model, transdermal administration; format: in vivo; conditions: 0.1% formulation applied transdermally to plantar surface of left hindlimb once a day for 2 weeks; measured on the day after last administration; pre-administration value = 100%
Method: The present test is to measure the analgesic effect based on the improvement level of the mechanical hyperalgesia in a neuropathic pain model as the indicator by transdermally administering the compound of the present invention and was carried out in accordance with the method of Kim and Chung [Pain, 50, 355-363 (1992)] or the method of Tsuda et al. [Nature, 424, 778-783, 2003].
Specifically, using Jcl: Wistar male rat (7 to 9 rats/group, 5 weeks of age at the time of surgery), spinal nerves were injured to induce hyperalgesia and the withdrawal threshold was measured using the von Frey filament. In the surgery, under Pentobarbital anesthesia, the left L5 spinal nerve was exposed, ligated near the spinal cord using a silk suture (5-0) and transected just peripheral to the ligation. After suturing the incision and keeping the rats for 2 weeks, the rats were subjected to the von Frey filament test. The measurement of the mechanical hyperalgesia was carried out by applying von Frey filaments (1.0, 2.0, 4.0, 8.0, 15.0 g) to the plantar surface of the left hindlimb, and the filament intensity at which 50% or higher withdrawal behavior was observed was defined as the withdrawal threshold.
After dissolving the test compounds in a mixture of Tween 80 and ethanol, the obtained solution was mixed with a hydrophilic ointment to prepare a formulation having a concentration of 0.1%. The withdrawal threshold before administering the test compound was measured to define the pre-administration value (100%). Thereafter, once a day, for 2 weeks, the formulation having a concentration of 0.1% was transdermally administered (applied) to the plantar surface of the left hindlimb, the von Frey filament test was carried out on the following day of the last administration to measure the post-administration value. Further, the same formulation as above but free of the test compound was prepared as a vehicle control and the same test was carried out.
The analgesic effect is a relative ratio when a test compound pre-administration value calculated using the following numerical formula is 100%. The pre-administration withdrawal threshold was 3.3±0.1 g (119 cases) (the withdrawal threshold of sham-operated rat was 10 to 15 g). %=(test compound post-administration withdrawal threshold value/pre-administration withdrawal threshold value)×100

TRPV1 = target: T1, TRPV1 (Rattus norvegicus, UniProt O35433); test: TRPV1 agonist activity by intracellular calcium level (FLIPR method); format: cell-based; conditions: 1 μM; rat dorsal root ganglion primary culture cells; read-out: Value (%) when fluorescence intensity for capsaicin (1 μM) is 100%
T1 construct: using cultured rat dorsal root ganglion cells which express TRPV1 abundantly; endogenous in cells; host or cells: primary culture of dorsal root ganglion cells from 7 day old Wistar rat
T1 sequence (O35433 whole entry): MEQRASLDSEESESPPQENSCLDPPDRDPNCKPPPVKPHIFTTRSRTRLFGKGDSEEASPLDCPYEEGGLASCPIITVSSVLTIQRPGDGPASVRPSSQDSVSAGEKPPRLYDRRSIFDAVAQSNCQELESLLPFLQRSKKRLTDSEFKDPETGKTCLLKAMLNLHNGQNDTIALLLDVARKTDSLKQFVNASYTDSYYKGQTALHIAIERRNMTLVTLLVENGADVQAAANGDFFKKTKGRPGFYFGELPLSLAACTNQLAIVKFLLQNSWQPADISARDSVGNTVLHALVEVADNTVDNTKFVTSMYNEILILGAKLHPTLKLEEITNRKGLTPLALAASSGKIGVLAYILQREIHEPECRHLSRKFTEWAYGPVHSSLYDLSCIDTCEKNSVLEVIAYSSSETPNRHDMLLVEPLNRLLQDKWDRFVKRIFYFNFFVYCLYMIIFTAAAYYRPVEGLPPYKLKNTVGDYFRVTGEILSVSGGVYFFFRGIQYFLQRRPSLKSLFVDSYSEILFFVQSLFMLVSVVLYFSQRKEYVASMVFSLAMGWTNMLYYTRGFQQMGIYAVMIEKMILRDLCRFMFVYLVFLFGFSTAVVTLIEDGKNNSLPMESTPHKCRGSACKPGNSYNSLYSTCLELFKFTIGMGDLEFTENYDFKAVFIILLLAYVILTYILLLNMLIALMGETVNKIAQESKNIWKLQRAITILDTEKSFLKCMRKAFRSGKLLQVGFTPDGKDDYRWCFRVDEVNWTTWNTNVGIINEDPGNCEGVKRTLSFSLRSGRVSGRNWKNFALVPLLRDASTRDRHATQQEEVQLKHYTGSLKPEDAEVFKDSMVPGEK
Description: The test is to measure the elevation of intracellular calcium level as the indicator of TRPV1 agonist activity of a test compound using cultured rat dorsal root ganglion cells which express TRPV1 abundantly, and carried out in accordance with the method of Jerman et al. (Jerman, J. C. et al., Comparison of effects of anandamide at recombinant and endogenous rat vanilloid receptors. Br J Anaesth, 2002. 89(6): p. 882-7). More specifically, the dorsal root ganglion was removed from a 7 day old Wistar rat, and the cells were isolated by collagenase-trypsin treatment. Subsequently, the primary cells was cultured in a CO2 incubator controlled at 5% CO2 and 37° C. for 2 days. The culture medium used was Neurobasal™ medium supplemented with L-glutamine, nerve growth factor, N-2-Supplement, Penicillin-Streptomycin, 5-Fluoro-2′-deoxyuridine (culture day 1 only) were added to.
FLIPR^TETRA system (Molecular Devices Corp.) was used to measure the intracellular calcium concentration. As an indicator of TRPV1 agonistic activity, the fluorescence intensity elevation was monitored when a test compound is applied to the rat dorsal root ganglion primary culture cells loaded with a calcium-sensitive fluorescent reagent.

[2] = test system: mechanical hyperalgesia in a neuropathic pain model (rat Chung model); test: Analgesic effect in combination with Pregabalin: von Frey filament test using rat Chung model, i.pl. administration; format: in vivo
Method: The study was conducted using the same methods and evaluation criteria as in Test Example 1 with the exception of the administration route of the test compounds (see Test Example 1).
Using the von Frey filaments the test compound pre-administration values (pressure withdrawal threshold) were measured. Subsequently, 50 μl of a solution containing a test compound or vehicle control was intraplantarly injected to the left hindlimb using a microsyringe (intraplantar injection: i. pl. administration), and on the following day the withdrawal threshold was measured (effect of the test compound alone). Thereafter, 10 mg/kg of Pregabalin was orally administered and an hour later the withdrawal threshold was measured (combined effect).
Pregabalin was dissolved in distilled water. Physiological saline containing Tween 80 and ethanol was used as the vehicle control for the i. pl. administration.
The analgesic effect is a relative ratio when a pre-administration value calculated using the following numerical formula is 100%.

COc1cc(CNC(=O)C2CCN(C(=O)OC3CCC(C)(C)CC3)CC2)ccc1O [Example 8]
% to pre-administration value (withdrawal threshold) [1]: 191%
melting point: 111 °C
Emax at 1 µM (TRPV1): 96%
% to pre-administration value: (1) Test compound post-i. pl. administration value ([2]; 50 μl of 0.1% (W/V) solution intraplantar to left hindlimb, measured on the following day, test compound alone): 197%
% to pre-administration value: (2) Pregabalin post-oral administration value (Test compound administered on the day before) ([2]; test compound i.pl. the day before plus Pregabalin 10 mg/kg orally, measured an hour later, combined effect): 244%
